Test results: the supplement of paper PMC10883282
Counter-ions that a name gives are not always drawn. ± gives the standard deviation of the averaged measurements.

Test system: G401
Experiment: relative viability vs DMSO control (72 h) (fraction); higher = more viable cells
Method in brief: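 Relative viability was measured with ATPLite and expressed as percent growth, averaged across up to triplicate wells. Sarcoma cell lines had been seeded in 384-well plates to reach 80–90% confluence, dosed after 24 h, and incubated 72 h at 37 °C, 5% CO2. All data were rescaled on a scale where 1 is full and 0 is none.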

SMILES	relative viability (0.00017 µM)	relative viability (0.00051 µM)	relative viability (0.00152 µM)	relative viability (0.00457 µM)	relative viability (0.01372 µM)	relative viability (0.04115 µM)	relative viability (0.1235 µM)	relative viability (0.3704 µM)	relative viability (1.111 µM)	relative viability (3.333 µM)	relative viability (10 µM)
Cc1cnc(Nc2ccc(OCCN3CCCC3)cc2)nc1Nc1cccc(S(=O)(=O)NC(C)(C)C)c1 [Fedratinib]	1.029 ± 0.0083	1.05 ± 0.029	1.038 ± 0.0091	1.03 ± 0.019	1.04 ± 0.011	0.997 ± 0.024	0.919 ± 0.015	0.8157 ± 0.0074	0.499 ± 0.0075	0.204 ± 0.012	0.0136 ± 0.00091
C=CC(=O)N1CCC([C@@H]2CCNc3c(C(N)=O)c(-c4ccc(Oc5ccccc5)cc4)nn32)CC1 [Zanubrutinib]	0.964 ± 0.022	0.96 ± 0.023	0.99 ± 0.023	0.99 ± 0.024	0.946 ± 0.044	0.957 ± 0.031	0.957 ± 0.026	0.9805 ± 0.0066	0.932 ± 0.035	0.872 ± 0.029	0.801 ± 0.039
CN1CCC(COc2cnc(-c3cccc(Cn4nc(-c5cccc(C#N)c5)ccc4=O)c3)nc2)CC1 [Tepotinib]	1.02 ± 0.014	1.02 ± 0.015	1.012 ± 0.01	1.003 ± 0.0083	1.04 ± 0.018	1.04 ± 0.057	1.02 ± 0.013	1.01 ± 0.029	1 ± 0.015	0.9287 ± 0.0054	0.787 ± 0.02
Cc1nc(NC(=O)N2CCC[C@H]2C(N)=O)sc1-c1ccnc(C(C)(C)C(F)(F)F)c1 [Alpelisib]	1 ± 0.066	1.01 ± 0.04	0.993 ± 0.041	0.946 ± 0.075	0.939 ± 0.017	0.906 ± 0.079	0.864 ± 0.021	0.777 ± 0.036	0.697 ± 0.07	0.577 ± 0.053	0.504 ± 0.052
CC[C@H](Nc1ncnc2[nH]cnc12)c1nc2cccc(F)c2c(=O)n1-c1ccccc1 [Idelalisib]	1.06 ± 0.034	1.07 ± 0.036	1.06 ± 0.051	1.05 ± 0.017	1.02 ± 0.032	0.998 ± 0.036	0.987 ± 0.042	0.965 ± 0.021	0.946 ± 0.013	0.877 ± 0.045	0.795 ± 0.023
COc1cccc2c1C(=O)c1c(O)c3c(c(O)c1C2=O)C[C@@](O)(C(=O)CO)C[C@@H]3O[C@H]1C[C@H](N)[C@H](O)[C@H](C)O1 [Doxorubicin Hydrochloride]	1.03 ± 0.011	1.02 ± 0.018	1 ± 0.041	0.937 ± 0.021	0.8493 ± 0.0066	0.681 ± 0.019	0.476 ± 0.041	0.079 ± 0.017	0.0407 ± 0.0027	0.096 ± 0.0082	0.101 ± 0.0054
Cc1ccc(NC(=O)c2ccc(CN3CCN(C)CC3)cc2)cc1Nc1nc(-c2cccnc2)cs1 [Masitinib]	0.973 ± 0.058	0.9736 ± 0.0054	0.9669 ± 0.0091	0.9556 ± 0.0058	0.979 ± 0.026	0.971 ± 0.047	0.931 ± 0.024	0.843 ± 0.056	0.687 ± 0.0084	0.388 ± 0.014	0.0983 ± 0.005
Cn1cnc2c(F)c(Nc3ccc(Br)cc3F)c(C(=O)NOCCO)cc21 [Binimetinib]	1.01 ± 0.025	1.05 ± 0.019	1.03 ± 0.033	1.01 ± 0.011	0.983 ± 0.023	0.904 ± 0.0051	0.886 ± 0.029	0.859 ± 0.021	0.782 ± 0.02	0.716 ± 0.046	0.584 ± 0.038
CC(=O)Nc1cccc(-n2c(=O)n(C3CC3)c(=O)c3c(Nc4ccc(I)cc4F)n(C)c(=O)c(C)c32)c1 [Trametinib]	1.01 ± 0.054	1 ± 0.019	0.952 ± 0.018	0.906 ± 0.029	0.845 ± 0.032	0.765 ± 0.017	0.627 ± 0.011	0.38 ± 0.027	0.184 ± 0.0096	0.144 ± 0.014	0.12 ± 0.012
Cc1cc(Nc2ncnc3ccc(NC4=NC(C)(C)CO4)cc23)ccc1Oc1ccn2ncnc2c1 [Tucatinib]	1.03 ± 0.042	1.04 ± 0.039	1.02 ± 0.04	1.02 ± 0.037	1.01 ± 0.037	0.985 ± 0.036	1.02 ± 0.026	1.01 ± 0.026	1.01 ± 0.035	0.984 ± 0.025	0.985 ± 0.031
CCN1CCN(Cc2ccc(Nc3ncc(F)c(-c4cc(F)c5nc(C)n(C(C)C)c5c4)n3)nc2)CC1 [Abemaciclib]	0.985 ± 0.03	0.964 ± 0.018	0.924 ± 0.048	0.922 ± 0.061	0.857 ± 0.051	0.822 ± 0.037	0.796 ± 0.044	0.786 ± 0.048	0.758 ± 0.017	0.746 ± 0.037	0.6941 ± 0.0055
Cc1nc(-c2cn3c(n2)-c2ccc(-c4cnn(C(C)(C)C(N)=O)c4)cc2OCC3)n(C(C)C)n1 [Taselisib]	0.995 ± 0.022	0.968 ± 0.045	0.969 ± 0.032	0.923 ± 0.011	0.866 ± 0.019	0.7976 ± 0.0064	0.68 ± 0.03	0.592 ± 0.027	0.499 ± 0.021	0.439 ± 0.019	0.347 ± 0.018
C[C@@H]1COCCN1c1cc(-c2ccnn2C)c2ccnc(-c3ccn[nH]3)c2n1	0.996 ± 0.018	0.9815 ± 0.0068	1 ± 0.011	1.01 ± 0.023	0.997 ± 0.02	0.915 ± 0.026	0.803 ± 0.043	0.675 ± 0.0044	0.598 ± 0.0066	0.517 ± 0.012	0.486 ± 0.012
CO[C@H]1C[C@@H]2CC[C@@H](C)[C@@](O)(O2)C(=O)C(=O)N2CCCC[C@H]2C(=O)O[C@H]([C@H](C)C[C@@H]2CC[C@@H](OP(C)(C)=O)[C@H](OC)C2)CC(=O)[C@H](C)/C=C(\C)[C@@H](O)[C@@H](OC)C(=O)[C@H](C)C[C@H](C)/C=C/C=C/C=C/1C [Ridaforolimus]	0.919 ± 0.043	0.885 ± 0.03	0.841 ± 0.071	0.793 ± 0.068	0.751 ± 0.07	0.739 ± 0.056	0.744 ± 0.027	0.725 ± 0.019	0.712 ± 0.012	0.681 ± 0.017	0.645 ± 0.022
